Assay results from PMC11091243, “PD-L1 targeted peptide demonstrates potent antitumor and immunomodulatory activity in cancer immunotherapy” (Frontiers in Immunology, 2024).

What was measured:
Type in all cases: cell-based, mouse
CD4+ T cells in MLR = experiment: Mixed lymphocyte reaction (DCs, CT26 tumor cells, CD4+ T cells); settings: 20 μmol/L, versus control and control peptides, day 3, n = 3
Description: Fresh PBMCs were cultured in IMDM at 37°C for 2 hours and washed twice in PBS. Then cells were cultured in IMDM supplemented with 10% FBS, 25 ng/mL GM-CSF, and 50 ng/mL IL-4. Fresh medium was added every three days. TNF-α (50 ng/mL) was added on the sixth day to stimulate the maturation of dendritic cells (DCs) for 24 hours. The mature DCs were then frozen to be harvested later. Solid tumor tissues from the CT26 tumor-bearing animal have been removed and fragmented to collect tumor cells. In RPMI 1640 medium supplemented with 10% FBS, 2 mM L-glutamine, […] streptomycin, and 200 U/mL penicillin, these fragments were subjected to digestion with a combination of triple enzymes (collagenase, DNase, and hyaluronidase) for a maximum of 2 hours. The resultant cell suspension was then grown in complete RPMI 1640 medium at 37°C with 5% CO2 for 24 hours. The goal of this culture phase was to re-establish PD-L1 expression on the tumor cell surface since collagenase digestion may have destroyed it. DCs and tumor cells were both given a 2-hour treatment with mitomycin C (MMC) at a dosage of 100 μg/mL before the start of mixed lymphocyte responses (MLR). After thawing, the CD4+ T cells were cultured for overnight. […] Cell growth and IFN-γ levels in culture supernatants were measured on day 3.

CT26 cells [1] = experiment: Cytotoxicity of spleen lymphocytes of treated mice against CT26 cells (CCK8); settings: CT26:lymphocyte 1:2, 48 h, CCK8, n = 6, versus untreated and control peptide groups
Description: After 14 consecutive days of administration, total lymphocytes were isolated from mouse spleens using Ficoll density gradient fractionation, which was provided by Shanghai Biotech Bioengineering. Before co-incubation with lymphocytes, CT26 cells were treated with 100 μg/mL mitomycin C (MMC) for 2 hours for […] experiments. For cytotoxicity experiments, about 1×10^6 tumor cells were seeded in each well with a CT26: lymphocyte ratio of 1: 2 in 200 μL RIPM medium plus 10% FBS for 48 h. A corresponding negative control group was also designed. During the final two hours of the incubation, 10 µL of CCK8 reagent was added to each well following the manufacturer’s instructions (Biotech Bioengineering Cat: E606335). Using an ELISA plate reader (Molecular Devices, USA) the absorbance was determined at 450 nm. There were three duplicates of each experiment.

[2] = system: PD-L1-mediated suppression of CD4+ T cells; experiment: T-cell activation assay (CD4+ T cells on anti-CD3/PD-L1 coated plates)
Description: Following the manufacturer’s instructions, mouse peripheral blood mononuclear cells (PBMCs) were isolated from a healthy mouse using separation fluid. Then, CD4 (L3T4) MicroBeads were used to separate CD4+ T cells from PBMCs, and a CD4-PE/Cy5 antibody was employed to determine effectiveness. Cells were adjusted to a concentration of 5×10^5 cells/mL in IMDM supplemented with 10% FBS and 20 ng/mL IL-2 to produce CD4+ T-cell blasts. A 1:1 ratio of mouse T-activator CD3/CD28 beads was introduced to the cells. Every other day, new media was added, and on day 7, cells were collected and stored for later use. 100 μL of anti-mouse CD3 (1 μg/mL) were applied to each well and incubated at 4°C overnight. Next, the wells were rinsed twice with […] of PBS. The wells were then filled with 100 μL of PD-L1 […] and the plates were incubated at 37°C for 3 hours before receiving two PBS washes. Then, varying quantities of PD-L1 monoclonal antibodies and peptides (PPL-C or control peptide) were added to the appropriate wells, and the plates were incubated at 37°C for an hour. The wells were then washed twice with PBS. Finally, CD4^+ T cells (5×10^4 cells/well) were added, then centrifugated the plate at 1,000 RMP for 2 min. The cells were then cultured for three days at 37°C in a humidified incubator with 5% CO2. A mouse IFN-γ ELISA Kit was used to assess the quantity of IFN-γ in culture supernatant. […]

CT26 cells [3] = experiment: CCK8 proliferation assay on CT26 cells; settings: 0.1-1 mg/ml, 8 or 24 h, CCK8, n = 3
Description: To observe the impact of PPL-C on tumor cells and lymphocyte proliferation, the Counting Kit 8 (CCK8) reagent was employed. 20,000 cells/well were cultured in 96-well plates. Cells were treated for 8 or 24 hours with PPL-C (0.1, 0.25, 0.5, and 1 mg/ml) or not. Following the manufacturer guidelines, 10 µl of the CCK8 reagent (from Biotech Bioengineering, Cat: E606335) was applied to each well two hours before the incubation period ended. Using an ELISA plate reader from Molecular Devices (United States) the sample absorbance was calculated at 450 nm. To ensure repeatability, each experiment was replicated. By assessing absorbance at 450 nm, the CCK8 assay measures cell viability and proliferation.

MC38 cells = experiment: Flow cytometry binding to MC38 cells; settings: relatively low PD-L1 expression
Description: Fluorescence-based ELISA and cell-based tests were used to examine the binding specificity of PPL-C to PD-L1. To perform the ELISA, fluorescent plates were coated with 100 μL human PD-L1 (hPD-L1), mouse PD-L1 (mPD-L1), and BSA in PBS (pH 7.4) overnight at 4°C, respectively. Blocked the plates with 1% BSA (in PBST) for an hour at room temperature and rinsed twice with PBST. Then added peptides (20 μmol/L FITC-labeled PPL-C/Control peptide) and incubated for 1.5 hours at room temperature. With excitation at 488 nm and emission at 515 nm, the Cytation 3 instrument (BioTek) was used to measure the relative fluorescence intensity. Both attached and detached cells were used in the cell-based flow cytometry analysis. […] After that, cells were treated for 40 minutes at 4°C on an inversion shaker with PD-L1 antibody from Biolegend and 4 μmol/L FITC-labeled peptides (PPL-C/Control peptide). Each tube was washed twice with PBS following incubation and flow cytometry was carried out using a FACSort device. FlowJo software was used to evaluate the data that was acquired.

CC(C)[C@H](NC(=O)[C@H](CO)NC(=O)[C@@H](NC(=O)[C@@H](N)CO)C(C)C)C(=O)N[C@@H](CO)C(=O)N[C@@H](Cc1c[nH]cn1)C(=O)N[C@@H](Cc1ccccc1)C(=O)N[C@@H](CCC(N)=O)C(=O)N[C@@H](CCCCN)C(=O)N[C@H](C(=O)N[C@@H](Cc1c[nH]c2ccccc12)C(=O)N[C@H](C(=O)N[C@H](C(=O)NCC(=O)NCC(=O)NCC(=O)N[C@@H](CO)C(=O)N[C@@H](CCCCN)C(N)=O)C(C)C)C(C)C)C(C)C [PPL-C]
IFN-γ release in MLR (CD4+ T cells in MLR): significantly higher release | Effect of lymphocytes from treated mice on tumor cell proliferation (CT26 cells [1]): significantly inhibited tumor cell proliferation | T-cell proliferation ([2]; 20 μmol/L, CCK-8, n = 3): increased significantly | IFN-γ release of CD4+ T lymphocytes ([2]; versus control peptide, 3 days, ELISA, n = 3): significant increase | Growth of CT26 cells after peptide administration (direct cytotoxicity) (CT26 cells [3]): grew normally | Affinity to MC38 cells (MC38 cells): low affinity
